Laboratory results taken from ChEMBL document CHEMBL1201862, “PubChem BioAssay data set” (2004).
Calls of active or inactive are those of the source.

Assays:
HEK293 [1] = assay: HEK cell cytotoxicity by LDH release, dose response, cytotoxicity control for IDE activator project, fluorescence, HEK cells (AID 588440); type: functional, cell-based; conditions: Homo sapiens;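 note: cytotoxicity by LDH release measuring loss of membrane integrity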
cells = type: functional
Insulin-degrading enzyme [2] = target: T1, Insulin-degrading enzyme (Homo sapiens, UniProt P14735); assay: activators of recombinant IDE enzyme, dose response, counter-screen for IDE activator project, biochemical, fluorescence polarization (AID 588681)
T1 sequence (P14735 whole entry): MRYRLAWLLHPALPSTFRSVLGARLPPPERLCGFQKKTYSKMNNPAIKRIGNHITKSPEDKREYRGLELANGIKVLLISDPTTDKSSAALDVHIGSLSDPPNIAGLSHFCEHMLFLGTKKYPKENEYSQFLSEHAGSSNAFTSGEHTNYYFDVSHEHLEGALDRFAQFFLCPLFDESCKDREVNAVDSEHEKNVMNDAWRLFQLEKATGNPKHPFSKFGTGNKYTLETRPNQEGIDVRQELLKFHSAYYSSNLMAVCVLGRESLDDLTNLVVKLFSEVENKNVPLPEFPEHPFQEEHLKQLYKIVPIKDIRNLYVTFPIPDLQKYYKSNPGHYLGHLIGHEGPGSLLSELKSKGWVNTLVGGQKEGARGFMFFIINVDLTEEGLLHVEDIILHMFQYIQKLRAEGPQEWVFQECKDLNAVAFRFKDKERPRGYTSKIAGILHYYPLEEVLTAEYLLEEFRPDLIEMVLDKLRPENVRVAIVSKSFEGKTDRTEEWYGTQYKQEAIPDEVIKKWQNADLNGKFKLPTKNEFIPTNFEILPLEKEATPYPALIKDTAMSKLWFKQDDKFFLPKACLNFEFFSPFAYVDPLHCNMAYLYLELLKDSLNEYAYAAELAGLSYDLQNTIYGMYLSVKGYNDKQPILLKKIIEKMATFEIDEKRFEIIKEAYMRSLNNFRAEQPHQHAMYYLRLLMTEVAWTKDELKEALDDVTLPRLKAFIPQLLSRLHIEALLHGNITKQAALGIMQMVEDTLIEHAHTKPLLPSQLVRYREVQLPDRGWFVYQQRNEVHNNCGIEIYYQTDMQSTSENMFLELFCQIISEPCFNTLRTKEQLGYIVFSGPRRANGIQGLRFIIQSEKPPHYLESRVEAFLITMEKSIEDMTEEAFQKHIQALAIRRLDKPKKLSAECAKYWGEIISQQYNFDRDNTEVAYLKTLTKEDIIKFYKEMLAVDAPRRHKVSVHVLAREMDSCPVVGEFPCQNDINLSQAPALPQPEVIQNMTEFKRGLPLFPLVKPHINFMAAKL

HEK293 [3] = assay: optical interference in Abeta FP readout, dose response, artefact control for IDE activator project, biochemical, fluorescence polarization (AID 588442); type: functional, cell-based; conditions: Homo sapiens
X-box-binding protein 1 = target: T2, X-box-binding protein 1 (Homo sapiens, UniProt P17861); type: functional, Cricetulus griseus;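 note: confirmatory dose-response counter-screen serving a CHOP assay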
T2 sequence (P17861 whole entry): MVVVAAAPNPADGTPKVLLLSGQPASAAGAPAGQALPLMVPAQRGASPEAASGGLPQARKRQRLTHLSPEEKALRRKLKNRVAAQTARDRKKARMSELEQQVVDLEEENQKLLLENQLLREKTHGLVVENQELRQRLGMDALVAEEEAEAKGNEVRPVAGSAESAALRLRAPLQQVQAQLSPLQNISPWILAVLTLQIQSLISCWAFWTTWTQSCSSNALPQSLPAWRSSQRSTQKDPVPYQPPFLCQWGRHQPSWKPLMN

[4] = THP-1 cell cytotoxicity, dose response, cytotoxicity control for non-replicating M. tuberculosis project (AID 489025); type: functional
[5] = Vero E6 cell cytotoxicity, dose response, cytotoxicity control for non-replicating M. tuberculosis project, secondary assay (AID 492998); type: functional, VeroE6; conditions: Vero C1008
Insulin-degrading enzyme [6] = target: T1, Insulin-degrading enzyme; assay: activators of endogenous IDE in HEK cells, dose response, cell-based, fluorescence polarization (AID 588439); type: functional
Melanocortin receptor 4 = Melanocortin receptor 4 (Homo sapiens, UniProt P32245); type: functional, cell-based;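 note: Cell-based assay with luminescence read-out, confirmatory dose-response testing for agonist activity of biased ligands at MC4R; human U2OS cells with tagged receptor and beta-arrestin; potency of agonists that increase receptor coupling to beta-arrestin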
Sequence of Melanocortin receptor 4 (P32245 whole entry): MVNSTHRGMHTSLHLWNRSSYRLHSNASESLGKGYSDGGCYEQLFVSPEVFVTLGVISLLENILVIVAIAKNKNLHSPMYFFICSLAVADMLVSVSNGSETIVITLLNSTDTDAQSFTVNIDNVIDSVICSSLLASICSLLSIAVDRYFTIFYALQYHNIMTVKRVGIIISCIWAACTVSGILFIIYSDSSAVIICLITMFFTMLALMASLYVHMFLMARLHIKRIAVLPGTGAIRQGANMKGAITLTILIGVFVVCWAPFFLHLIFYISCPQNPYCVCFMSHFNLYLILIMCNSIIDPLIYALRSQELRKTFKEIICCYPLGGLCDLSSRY

[7] = HepG2 cell cytotoxicity, dose response, cytotoxicity control for non-replicating M. tuberculosis project (AID 489018); type: functional; conditions: Mycobacterium tuberculosis
[8] = control 3'UTR Renilla luciferase suppression, dose response, counter-screen for Shn3 inhibitor project, cell-based, Clone20-Shn3RL, cherry-picked (AID 624133); type: functional
[9] = Shn3 3'UTR reporter inhibitors, dose response, cell-based, Clone20 osteoblasts, firefly luciferase, cherry-picked (AID 624132); type: functional;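 note: firefly luciferase luminescence from reporter carrying the Shn3 3'UTR in osteoblasts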
[10] = HepG2 cell cytotoxicity, dose response, cytotoxicity control for Shn3 inhibitor project, CellTiter-Glo, cherry-picked (AID 624134); type: functional, cell-based
Protein Wnt-3a = Protein Wnt-3a (Mus musculus, UniProt P27467); assay: Wnt3a-driven reporter signaling inhibition, dose response, selectivity assay for Gli-SUFU antagonist project, Wnt-LIGHT cells, luminescence (AID 651570); type: functional; conditions: read-out: IC50_Mean;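 note: Wnt-LIGHT reporter cells stimulated with conditioned medium from Wnt3a-producing cells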
Sequence of Protein Wnt-3a (P27467 whole entry): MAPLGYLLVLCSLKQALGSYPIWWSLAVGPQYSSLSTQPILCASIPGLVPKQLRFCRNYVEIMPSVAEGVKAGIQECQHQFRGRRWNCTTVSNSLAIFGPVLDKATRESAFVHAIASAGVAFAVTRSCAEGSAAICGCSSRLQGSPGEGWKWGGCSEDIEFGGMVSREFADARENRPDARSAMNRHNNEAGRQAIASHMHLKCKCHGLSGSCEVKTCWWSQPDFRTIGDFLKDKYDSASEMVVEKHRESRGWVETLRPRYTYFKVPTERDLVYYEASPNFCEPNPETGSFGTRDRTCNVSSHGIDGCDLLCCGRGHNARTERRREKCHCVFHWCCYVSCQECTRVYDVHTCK

[11] = target: T3, Corticotropin-releasing factor receptor 2/Corticotropin-releasing factor-binding protein (Homo sapiens, UniProt P24387+Q13324); assay: Dose Response confirmation of uHTS hits for small molecule antagonists of the CRF-binding protein and CRF-R2 receptor complex.; type: functional; conditions: read-out: IC50_Mean
T3 sequence (Q13324 whole entry): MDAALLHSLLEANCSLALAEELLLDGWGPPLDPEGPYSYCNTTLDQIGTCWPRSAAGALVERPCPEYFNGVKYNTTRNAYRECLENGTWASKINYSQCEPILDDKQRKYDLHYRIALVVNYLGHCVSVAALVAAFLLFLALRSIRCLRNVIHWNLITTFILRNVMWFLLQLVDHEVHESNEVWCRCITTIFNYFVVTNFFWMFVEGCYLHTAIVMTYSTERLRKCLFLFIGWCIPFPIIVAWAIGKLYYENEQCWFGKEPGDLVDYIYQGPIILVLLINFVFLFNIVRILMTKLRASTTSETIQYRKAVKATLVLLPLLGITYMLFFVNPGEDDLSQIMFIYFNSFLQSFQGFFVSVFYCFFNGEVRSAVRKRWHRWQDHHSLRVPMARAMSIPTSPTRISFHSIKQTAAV
T3 sequence (P24387 whole entry): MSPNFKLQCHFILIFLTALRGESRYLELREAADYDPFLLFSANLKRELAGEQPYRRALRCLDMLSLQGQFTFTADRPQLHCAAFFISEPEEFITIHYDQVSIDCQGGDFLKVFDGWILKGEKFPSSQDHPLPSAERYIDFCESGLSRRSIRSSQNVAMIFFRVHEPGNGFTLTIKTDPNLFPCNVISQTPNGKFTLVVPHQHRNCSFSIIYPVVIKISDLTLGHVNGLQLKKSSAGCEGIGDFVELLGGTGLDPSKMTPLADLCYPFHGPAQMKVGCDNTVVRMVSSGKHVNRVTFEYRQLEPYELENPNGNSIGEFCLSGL

[12] = target: T3, Corticotropin-releasing factor receptor 2/Corticotropin-releasing factor-binding protein; assay: activators of CRF receptor 2 with binding protein – uHTS hits, confirmation (AID 602473); type: functional; conditions: read-out: EC50_Mean
[13] = CRF-BP/CRF-R2 complex antagonists, dose response, cell-based, uHTS hits, 384-well (AID 651639); type: functional, Homo sapiens; conditions: read-out: IC50_Mean
[14] = target: T4, Low molecular weight phosphotyrosine protein phosphatase (Homo sapiens, UniProt P24666); type: functional; conditions: read-out: IC50_Mean
T4 sequence (P24666 whole entry): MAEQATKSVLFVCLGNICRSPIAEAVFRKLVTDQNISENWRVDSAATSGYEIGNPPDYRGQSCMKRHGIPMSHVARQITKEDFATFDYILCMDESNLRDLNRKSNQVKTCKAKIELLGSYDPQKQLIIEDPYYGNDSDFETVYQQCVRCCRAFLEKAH

[15] = target: T4, Low molecular weight phosphotyrosine protein phosphatase; type: functional; conditions: read-out: IC50_Mean; remark: listed apart in the source
[16] = target: T5, ATP-dependent translocase ABCB1 (Homo sapiens, UniProt P08183); assay: ABCB1 efflux inhibitor potency, dose response, Jurkat-DNR cells, JC-1, flow cytometry, set 2 (AID 504569); type: functional; conditions: read-out: EC50_MICROM_;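 note: potency of pump inhibitors that raise cellular JC-1 green fluorescence up to the nicardipine level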
T5 sequence (P08183 whole entry): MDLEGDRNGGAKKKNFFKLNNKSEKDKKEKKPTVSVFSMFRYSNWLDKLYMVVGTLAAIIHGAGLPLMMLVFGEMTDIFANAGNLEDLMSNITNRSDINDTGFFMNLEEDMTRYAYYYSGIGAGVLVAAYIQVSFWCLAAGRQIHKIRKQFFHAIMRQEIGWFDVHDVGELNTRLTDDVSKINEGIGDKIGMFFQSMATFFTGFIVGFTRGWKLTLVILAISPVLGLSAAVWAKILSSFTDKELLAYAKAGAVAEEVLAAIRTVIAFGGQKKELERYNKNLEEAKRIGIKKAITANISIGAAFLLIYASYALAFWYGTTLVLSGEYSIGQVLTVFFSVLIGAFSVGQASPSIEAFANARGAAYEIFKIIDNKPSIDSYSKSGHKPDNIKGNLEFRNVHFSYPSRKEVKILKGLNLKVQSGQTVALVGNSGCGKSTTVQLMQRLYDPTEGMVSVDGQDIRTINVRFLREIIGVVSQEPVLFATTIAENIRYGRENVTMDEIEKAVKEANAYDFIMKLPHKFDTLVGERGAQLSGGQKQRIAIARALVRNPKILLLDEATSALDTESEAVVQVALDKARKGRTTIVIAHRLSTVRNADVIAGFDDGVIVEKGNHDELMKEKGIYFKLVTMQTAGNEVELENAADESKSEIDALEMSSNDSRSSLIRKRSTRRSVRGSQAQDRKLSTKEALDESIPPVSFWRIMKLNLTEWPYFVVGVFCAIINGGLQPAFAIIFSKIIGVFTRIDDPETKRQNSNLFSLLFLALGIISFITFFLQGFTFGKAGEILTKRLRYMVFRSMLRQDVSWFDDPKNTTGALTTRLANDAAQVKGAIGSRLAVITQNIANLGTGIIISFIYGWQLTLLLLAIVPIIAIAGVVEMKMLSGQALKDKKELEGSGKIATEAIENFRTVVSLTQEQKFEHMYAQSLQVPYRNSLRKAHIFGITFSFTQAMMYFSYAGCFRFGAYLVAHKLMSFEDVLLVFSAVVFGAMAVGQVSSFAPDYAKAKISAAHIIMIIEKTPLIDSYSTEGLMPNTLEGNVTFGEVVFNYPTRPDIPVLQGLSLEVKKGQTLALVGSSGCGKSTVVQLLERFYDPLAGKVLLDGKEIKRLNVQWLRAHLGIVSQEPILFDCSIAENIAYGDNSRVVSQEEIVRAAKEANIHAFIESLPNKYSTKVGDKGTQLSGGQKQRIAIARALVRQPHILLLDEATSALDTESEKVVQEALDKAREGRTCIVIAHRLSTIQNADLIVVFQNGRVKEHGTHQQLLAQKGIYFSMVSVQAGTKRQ

[17] = target: T5, ATP-dependent translocase ABCB1; assay: ABCG2 efflux pump inhibitor potency, dose response, Ig-MXP3 cells, JC-1, flow cytometry, set 2 (AID 504566); type: functional; conditions: read-out: EC50_MICROM_;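 note: flow cytometry median green fluorescence of retained JC-1 dye; potency of efflux pump inhibition measured as rising substrate retention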

## Cc1c(CN2CCC(CO)(CCOc3ccccc3)CC2)[nH]c2c(Cl)cccc12
HEK293 [1]
  IC50: 22.8 µM (inactive)
cells
  IC50: 6.5 µM (active)
Insulin-degrading enzyme [2]
  EC50: > 54.7 µM (inactive)
HEK293 [3]
  EC50: > 54.7 µM (inactive)
X-box-binding protein 1
  Absolute IC50 (XBP1): 10 µM
[4]
  CC50: 12.4 µM (active)
[5]
  CC50: 16.3 µM (active)
Insulin-degrading enzyme [6]
  EC50: 14.3 µM (inactive)
Melanocortin receptor 4
  EC50: > 89.2 µM (inactive)
[7]
  CC50: 14.5 µM (active)

## C=CCOC(=O)c1[nH]c2c(c1C)C(=O)CC(c1cc(OC)c(OC)c(OC)c1)C2 (stereo unspecified)
[8]
  AC50: 1.28 µM (active)
[9]
  AC50: 1.83 µM (active)
[10]
  AC50: 53.5 µM (active)
Protein Wnt-3a
  IC50: 1.89 µM (active)

## CCCOc1ccc(C(=O)N2CCN(c3ccc(NC(=O)CC)cc3Cl)CC2)cc1
[11]
  IC50: 16 µM (active)
[12]
  EC50: > 53 µM (inactive)
[13]
  IC50: 16.3 µM (active)

## COc1ccc(CN(C)C(=O)c2cccc(NC(=O)CC3SC(N4CCCCC4)=NC3=O)c2)c(OC)c1 (stereo unspecified)
Protein Wnt-3a
  IC50: 21.7 µM (inactive)

## COc1ccccc1CNc1nc(NCc2cnc(C)cn2)c2sccc2n1
[14]
  IC50: 4.31 µM (active)
[15]
  IC50: 5.74 µM (active)

## O=C(C1CCCCC1)N1CCN(c2cc(-c3ccccc3)nc3cc(-c4cccc(Cl)c4)nn23)CC1
[16]
  EC50: 1.71 µM (active)
[17]
  EC50: 1.75 µM (active)

## O=C1C(=Cc2cn(-c3ccccc3)nc2-c2ccc(OCc3ccccc3F)cc2)SC(=S)N1CCS(=O)(=O)O
[14]
  IC50: 4.12 µM (active)
[15]
  IC50: 12.2 µM (active)

## COc1ccc(-c2cc3nc(C)cc(N4CCN(C(=O)c5ccco5)CC4)n3n2)cc1
[16]
  EC50: 4.78 µM (active)
[17]
  EC50: 1.52 µM (active)
